Results: article PMC6377692 (EJNMMI Research, 2019)
Bridge positions count the residues as written; N and C are the ends. Square brackets hold non-standard residues; d marks the D form. Peptide text beside a SMILES is read from it. * marks the point of attachment. DO3A(CH2CH2SO2CH2CH2) = O=C(O)CN1CCN(CCS(=O)(=O)CC*)CCN(CC(=O)O)CCN(CC(=O)O)CC1; Ala(4-thiazolyl) = N[C@@H](Cc1cscn1)C(=O)O

System: cynomolgus monkey GCGR
Experiment: functional cAMP assay in transfected HEK293 cells
Format: cell-based
Method: The same assay was performed for GLP-1R to assess cross-binding. Details of the assay procedure are described in Additional file 1 and have also been described elsewhere.
cAMP content of cells was determined using a kit from Cisbio Corp. (cat. no. 62AM4PEJ) based on HTRF (Homogenous Time Resolved Fluorescence). For preparation, cells were split into T175 culture flasks and grown overnight to near confluency in medium (DMEM / 10% FBS). Medium was then removed and cells washed with PBS lacking calcium and magnesium, followed by proteinase treatment with accutase (Sigma-Aldrich cat. no. A6964). Detached cells were washed and resuspended in assay buffer (1 x HBSS; 20 mM HEPES, 0.1% BSA, 2 mM IBMX) and cellular density determined. They were then diluted to 400000 cells/ml and 25 µl-aliquots dispensed into the wells of 96-well plates. For measurement, 25 µl of test compound in assay buffer was added to the wells, followed by incubation for 30 minutes at room temperature.

CC[C@H](C)[C@H](NC(=O)[C@H](Cc1ccccc1)NC(=O)[C@H](CCC(=O)O)NC(=O)[C@@H]1CCCCNC(=O)CC[C@H](NC(=O)[C@H](CC(=O)O)NC(=O)[C@H](CC(C)C)NC(=O)[C@H](CCC(N)=O)NC(=O)[C@H](CCCCN)NC(=O)[C@H](CO)NC(=O)[C@H](Cc2ccc(O)cc2)NC(=O)[C@H](CC(=O)O)NC(=O)[C@H](CO)NC(=O)[C@@H](NC(=O)[C@H](Cc2ccccc2)NC(=O)[C@@H](NC(=O)CNC(=O)[C@H](CCC(N)=O)NC(=O)[C@@H](CO)NC(=O)[C@@H](N)Cc2cscn2)[C@@H](C)O)[C@@H](C)O)C(=O)N[C@@H](CCC(N)=O)C(=O)N[C@@H](CCCNC(=N)N)C(=O)N[C@@H](C)C(=O)N1)C(=O)N[C@@H](CCC(=O)O)C(=O)N[C@@H](Cc1c[nH]c2ccccc12)C(=O)N[C@@H](CC(C)C)C(=O)N[C@@H](CC(C)C)C(=O)N[C@@H](C)C(=O)N[C@H](C(=O)NCC(=O)N1CCC[C@H]1C(=O)N[C@@H](CCC(=O)O)C(=O)N[C@@H](CO)C(=O)NCC(=O)N[C@@H](C)C(=O)N1CCC[C@H]1C(=O)N1CCC[C@H]1C(=O)N1CCC[C@H]1C(=O)N[C@@H](CO)C(=O)N[C@@H](CSCCS(=O)(=O)CCN1CCN(CC(=O)O)CCN(CC(=O)O)CCN(CC(=O)O)CC1)C(N)=O)[C@@H](C)O [DO3A-S01-GCG] (H-[Ala(4-thiazolyl)][dS]QGTFTSDYSKQLDEQRAKEFIEWLLATGPESGAPPPSC(DO3A(CH2CH2SO2CH2CH2))-NH2; lactam 16-20)
EC50: 1.2 pM
